Reference: patent publication US20260327221A1, “INHIBITORS OF CYCLIC GMP-AMP SYNTHASE AND USES THEREOF” (Ventus Therapeutics U.S., Inc., priority 2023, published 2026)
Like-named read-outs stand apart in the source and are kept apart here.

Biological target: hcGAS (Homo sapiens, UniProt Q8N884)
Assay: hcGAS LCMS assay (direct measurement of cGAMP production by LC/MS)
Format: biochemical
Conditions: for cGAS potency relative to Compound 1: compared with Compound 1, from activity classes of Table D
In short: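 Enzyme, substrates (ATP, GTP) and compound incubated 4 h, then quenched with acetonitrile/water containing 0.15 uM 13C/15N-labeled cGAMP internal standard. cGAMP formed quantified directly by LC/MS on HILIC amide column; IC50 values reported in potency bins.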

[1] = 4 h incubation with enzyme and substrates, cGAMP production by LC/MS, class symbols, read-out: hcGAS LCMS IC50
[2] = hcGAS 0.5 nM, ATP 100 μM, GTP 100 μM, dsDNA 25 nM, pH 7.4, 4 h incubation, read-out: hcGAS inhibition IC50 (activity class, Table D)

hcGAS, sequence (Q8N884 whole entry): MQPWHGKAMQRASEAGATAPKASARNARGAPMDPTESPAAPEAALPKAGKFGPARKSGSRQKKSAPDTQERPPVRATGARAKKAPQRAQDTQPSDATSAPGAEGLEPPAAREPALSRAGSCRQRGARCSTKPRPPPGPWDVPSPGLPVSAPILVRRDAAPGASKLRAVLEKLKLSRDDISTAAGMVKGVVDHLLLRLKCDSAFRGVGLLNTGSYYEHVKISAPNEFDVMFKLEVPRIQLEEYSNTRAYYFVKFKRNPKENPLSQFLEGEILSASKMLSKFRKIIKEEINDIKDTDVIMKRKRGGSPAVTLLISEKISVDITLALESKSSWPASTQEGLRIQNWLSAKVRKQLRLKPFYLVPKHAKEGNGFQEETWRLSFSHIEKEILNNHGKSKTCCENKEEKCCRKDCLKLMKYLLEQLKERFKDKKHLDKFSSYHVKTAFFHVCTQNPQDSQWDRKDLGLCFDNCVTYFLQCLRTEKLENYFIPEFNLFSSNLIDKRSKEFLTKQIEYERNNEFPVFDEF

| IC50 [1] [nM] | cGAS potency relative to Compound 1 | IC50 [2] [nM] | Compound |
| --- | --- | --- | --- |
| 1 to 5 |  |  | COCCOc1c(-c2c(C#N)cccc2COC)cc(C(=O)Nc2nnc(-n3nccc3N)s2)oc1=O [Compound 39, N-(5-(5-amino-1H-pyrazol-1-yl)-1,3,4-thiadiazol-2-yl)-4-(2-cyano-6-(methoxymethyl)phenyl)-3-(2-methoxyethoxy)-2-oxo-2H-pyran-6-carboxamide] |
| 0.5 to 1 |  |  | COc1cccc(OC)c1-c1cc(C(=O)Nc2nnc(-n3nccc3N)s2)oc(=O)c1OCCCO [Compound 40, N-(5-(5-amino-1H-pyrazol-1-yl)-1,3,4-thiadiazol-2-yl)-4-(2,6-dimethoxyphenyl)-3-(3-hydroxypropoxy)-2-oxo-2H-pyran-6-carboxamide] |
| < 0.5 | improved cGAS potency | < 0.5 | COCCOc1c(-c2c(O)cccc2Cl)cc(C(=O)Nc2nnc(-n3nccc3N)s2)oc1=O [Compound 41, N-(5-(5-amino-1H-pyrazol-1-yl)-1,3,4-thiadiazol-2-yl)-4-(2-chloro-6-hydroxyphenyl)-3-(2-methoxyethoxy)-2-oxo-2H-pyran-6-carboxamide] |
| 0.5 to 1 |  |  | COc1cccc(OC)c1-c1cc(C(=O)Nc2nnc(-n3nccc3N)s2)oc(=O)c1OCC1(OC)CC1 [Compound 42, N-(5-(5-amino-1H-pyrazol-1-yl)-1,3,4-thiadiazol-2-yl)-4-(2,6-dimethoxyphenyl)-3-((1-methoxycyclopropyl)methoxy)-2-oxo-2H-pyran-6-carboxamide] |
| < 0.5 | improved cGAS potency | < 0.5 | COc1cccc(OC)c1-c1cc(C(=O)Nc2nnc(-n3nccc3N)s2)oc(=O)c1OCCN1CCSCC1 [Compound 44, N-(5-(5-amino-1H-pyrazol-1-yl)-1,3,4-thiadiazol-2-yl)-4-(2,6-dimethoxyphenyl)-2-oxo-3-(2-thiomorpholinoethoxy)-2H-pyran-6-carboxamide] |
| < 0.5 |  | < 0.5 | COCCOc1c(-c2c(Cl)cccc2C#N)cc(C(=O)Nc2nnc(-n3nccc3N)s2)oc1=O [Compound 45, N-(5-(5-amino-1H-pyrazol-1-yl)-1,3,4-thiadiazol-2-yl)-4-(2-chloro-6-cyanophenyl)-3-(2-methoxyethoxy)-2-oxo-2H-pyran-6-carboxamide] |
| 0.5 to 1 |  |  | COc1cccc(OC)c1-c1cc(C(=O)Nc2nnc(-n3nccc3N)s2)oc(=O)c1OC[C@@H](C)O [Compound 46A, (R)—N-(5-(5-amino-1H-pyrazol-1-yl)-1,3,4-thiadiazol-2-yl)-4-(2,6-dimethoxyphenyl)-3-(2-hydroxypropoxy)-2-oxo-2H-pyran-6-carboxamide] |
| < 0.5 |  |  | COc1cccc(OC)c1-c1cc(C(=O)Nc2nnc(-n3nccc3N)s2)oc(=O)c1OC[C@H](C)O [Compound 46B, (S)—N-(5-(5-amino-1H-pyrazol-1-yl)-1,3,4-thiadiazol-2-yl)-4-(2,6-dimethoxyphenyl)-3-(2-hydroxypropoxy)-2-oxo-2H-pyran-6-carboxamide] |
| 1 to 5 |  |  | COC[C@H](C)Oc1c(-c2c(OC)cccc2OC)cc(C(=O)Nc2nnc(-n3nccc3N)s2)oc1=O [Compound 47A, (S)—N-(5-(5-amino-1H-pyrazol-1-yl)-1,3,4-thiadiazol-2-yl)-4-(2,6-dimethoxyphenyl)-3-((1-methoxypropan-2-yl)oxy)-2-oxo-2H-pyran-6-carboxamide] |
| < 0.5 |  |  | COC[C@@H](C)Oc1c(-c2c(OC)cccc2OC)cc(C(=O)Nc2nnc(-n3nccc3N)s2)oc1=O [Compound 47B, (R)—N-(5-(5-amino-1H-pyrazol-1-yl)-1,3,4-thiadiazol-2-yl)-4-(2,6-dimethoxyphenyl)-3-((1-methoxypropan-2-yl)oxy)-2-oxo-2H-pyran-6-carboxamide] |
| 0.5 to 1 |  |  | COCCOc1c(-c2c(C#N)cccc2CO)cc(C(=O)Nc2nnc(-n3nccc3N)s2)oc1=O [Compound 48, N-(5-(5-amino-1H-pyrazol-1-yl)-1,3,4-thiadiazol-2-yl)-4-(2-cyano-6-(hydroxymethyl)phenyl)-3-(2-methoxyethoxy)-2-oxo-2H-pyran-6-carboxamide] |
| 1 to 5 |  |  | COCCOc1c(-c2nc(OC)ccc2OC)cc(C(=O)Nc2nnc(-n3nccc3N)s2)oc1=O [Compound 49, N-(5-(5-amino-1H-pyrazol-1-yl)-1,3,4-thiadiazol-2-yl)-4-(3,6-dimethoxypyridin-2-yl)-3-(2-methoxyethoxy)-2-oxo-2H-pyran-6-carboxamide] |
| 0.5 to 1 |  |  | COCCOc1c(-c2c(OC)cccc2OC)cc(C(=O)Nc2nnc(-c3ncsc3N)s2)oc1=O [Compound 51, N-(5-(5-aminothiazol-4-yl)-1,3,4-thiadiazol-2-yl)-4-(2,6-dimethoxyphenyl)-3-(2-methoxyethoxy)-2-oxo-2H-pyran-6-carboxamide] |
| < 0.5 |  |  | COc1cccc(OC)c1-c1cc(C(=O)Nc2nnc(-n3nccc3N)s2)oc(=O)c1OC[C@H](C)OC [Compound 53, (S)-N-(5-(5-amino-1H-pyrazol-1-yl)-1,3,4-thiadiazol-2-yl)-4-(2,6-dimethoxyphenyl)-3-(2-methoxypropoxy)-2-oxo-2H-pyran-6-carboxamide] |
| 0.5 to 1 |  |  | COc1cccc(OC)c1-c1cc(C(=O)Nc2nnc(-n3nccc3N)s2)oc(=O)c1OC[C@@H](C)OC [Compound 54, (R)-N-(5-(5-amino-1H-pyrazol-1-yl)-1,3,4-thiadiazol-2-yl)-4-(2,6-dimethoxyphenyl)-3-(2-methoxypropoxy)-2-oxo-2H-pyran-6-carboxamide] |
| 0.5 to 1 |  |  | COCCOc1c(-c2ncc(Cl)cc2OC)cc(C(=O)Nc2nnc(-n3nccc3N)s2)oc1=O [Compound 58, N-(5-(5-amino-1H-pyrazol-1-yl)-1,3,4-thiadiazol-2-yl)-4-(5-chloro-3-methoxypyridin-2-yl)-3-(2-methoxyethoxy)-2-oxo-2H-pyran-6-carboxamide] |
| 1 to 5 |  |  | COCCOc1c(-c2ncc(OC)cc2OC)cc(C(=O)Nc2nnc(-n3nccc3N)s2)oc1=O [Compound 60, N-(5-(5-amino-1H-pyrazol-1-yl)-1,3,4-thiadiazol-2-yl)-4-(3,5-dimethoxypyridin-2-yl)-3-(2-methoxyethoxy)-2-oxo-2H-pyran-6-carboxamide] |
| 1 to 5 |  |  | COc1cccnc1-c1cc(C(=O)Nc2nnc(-n3nccc3N)s2)oc(=O)c1OCCOC(F)F [Compound 61, N-(5-(5-amino-1H-pyrazol-1-yl)-1,3,4-thiadiazol-2-yl)-3-(2-(difluoromethoxy)ethoxy)-4-(3-methoxypyridin-2-yl)-2-oxo-2H-pyran-6-carboxamide] |
| 0.5 to 1 |  |  | COC[C@H](CO)Oc1c(-c2c(OC)cccc2OC)cc(C(=O)Nc2nnc(-n3nccc3N)s2)oc1=O [Compound 62A*, (S)—N-(5-(5-amino-1H-pyrazol-1-yl)-1,3,4-thiadiazol-2-yl)-4-(2,6-dimethoxyphenyl)-3-((1-hydroxy-3-methoxypropan-2-yl)oxy)-2-oxo-2H-pyran-6-carboxamide] |
| 0.5 to 1 |  |  | COC[C@@H](CO)Oc1c(-c2c(OC)cccc2OC)cc(C(=O)Nc2nnc(-n3nccc3N)s2)oc1=O [Compound 62B*, (R)—N-(5-(5-amino-1H-pyrazol-1-yl)-1,3,4-thiadiazol-2-yl)-4-(2,6-dimethoxyphenyl)-3-((1-hydroxy-3-methoxypropan-2-yl)oxy)-2-oxo-2H-pyran-6-carboxamide] |
| 0.5 to 1 |  |  | COC[C@H](O)COc1c(-c2c(OC)cccc2OC)cc(C(=O)Nc2nnc(-n3nccc3N)s2)oc1=O [Compound 63A*, (S)—N-(5-(5-amino-1H-pyrazol-1-yl)-1,3,4-thiadiazol-2-yl)-4-(2,6-dimethoxyphenyl)-3-(2-hydroxy-3-methoxypropoxy)-2-oxo-2H-pyran-6-carboxamide] |
| 0.5 to 1 |  |  | COc1cccc(OC)c1-c1cc(C(=O)Nc2nnc(-n3nccc3N)s2)oc(=O)c1OCCN1CC2(CSC2)C1 [Compound 65, 3-(2-(2-thia-6-azaspiro[3.3]heptan-6-yl)ethoxy)-N-(5-(5-amino-1H-pyrazol-1-yl)-1,3,4-thiadiazol-2-yl)-4-(2,6-dimethoxyphenyl)-2-oxo-2H-pyran-6-carboxamide] |
| 0.5 to 1 |  |  | COCCOc1c(-c2c(C#N)ccnc2OC)cc(C(=O)Nc2nnc(-n3nccc3N)s2)oc1=O [Compound 66, N-(5-(5-amino-1H-pyrazol-1-yl)-1,3,4-thiadiazol-2-yl)-4-(4-cyano-2-methoxypyridin-3-yl)-3-(2-methoxyethoxy)-2-oxo-2H-pyran-6-carboxamide] |
| 1 to 5 |  |  | COCCOc1c(-c2c(OC)cccc2OCCC#N)cc(C(=O)Nc2nnc(-n3nccc3N)s2)oc1=O [Compound 67, N-(5-(5-amino-1H-pyrazol-1-yl)-1,3,4-thiadiazol-2-yl)-4-(2-(2-cyanoethoxy)-6-methoxyphenyl)-3-(2-methoxyethoxy)-2-oxo-2H-pyran-6-carboxamide] |
| < 0.5 |  |  | COc1cccc(OC)c1-c1cc(C(=O)Nc2nnc(-n3nccc3N)s2)oc(=O)c1OCCOCCO [Compound 68, N-(5-(5-amino-1H-pyrazol-1-yl)-1,3,4-thiadiazol-2-yl)-4-(2,6-dimethoxyphenyl)-3-(2-(2-hydroxyethoxy)ethoxy)-2-oxo-2H-pyran-6-carboxamide] |
| 5 to 20 |  |  | COc1cccc(OC)c1-c1cc(C(=O)Nc2nnc(-n3nccc3N)s2)oc(=O)c1OCCN1CCCCC1 [Compound 69, N-(5-(5-amino-1H-pyrazol-1-yl)-1,3,4-thiadiazol-2-yl)-4-(2,6-dimethoxyphenyl)-2-oxo-3-(2-(piperidin-1-yl)ethoxy)-2H-pyran-6-carboxamide] |

| Compound | IC50 [1] [nM] | cGAS potency relative to Compound 1 | IC50 [2] [nM] |
| --- | --- | --- | --- |
| COc1cccc(OC)c1-c1cc(C(=O)Nc2nnc(-n3nccc3N)s2)oc(=O)c1OCCC(C)(C)O [Compound 59, N-(5-(5-amino-1H-pyrazol-1-yl)-1,3,4-thiadiazol-2-yl)-4-(2,6-dimethoxyphenyl)-3-(3-hydroxy-3-methylbutoxy)-2-oxo-2H-pyran-6-carboxamide] | < 0.5 |  |  |
